{"source": "paper PMC11725145", "about": "(Acta Pharmaceutica Sinica. B, 2024)", "key": {"[1]": {"molecular_target": "PDE1 Q421A (Homo sapiens, UniProt Q14123, Q427A)", "sequence (Q14123 147-531 Q427A)": "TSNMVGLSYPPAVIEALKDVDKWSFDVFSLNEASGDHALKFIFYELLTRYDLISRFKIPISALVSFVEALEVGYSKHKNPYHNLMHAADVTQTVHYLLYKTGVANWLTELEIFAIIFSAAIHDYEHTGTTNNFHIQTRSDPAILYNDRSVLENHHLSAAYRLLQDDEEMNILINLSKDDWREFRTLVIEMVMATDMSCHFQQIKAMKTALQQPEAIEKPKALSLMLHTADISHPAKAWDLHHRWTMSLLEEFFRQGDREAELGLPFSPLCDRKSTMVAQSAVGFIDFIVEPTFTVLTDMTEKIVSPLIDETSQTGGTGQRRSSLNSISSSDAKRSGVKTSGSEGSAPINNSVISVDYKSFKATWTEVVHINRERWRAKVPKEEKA", "assay": "Inhibition of PDE1 mutant by 10a", "assay_type": "biochemical", "details": "Q421A vs wild type"}, "[2]": {"molecular_target": "PDE1 F392A (Homo sapiens, UniProt Q14123, F398A)", "sequence (Q14123 147-531 F398A)": "as the sequence (Q14123 147-531 Q427A) above, with F252A, A281Q counted along it", "assay": "Inhibition of PDE1 mutant by 10a", "assay_type": "biochemical"}, "[3]": {"molecular_target": "PDE1 Y228A (Homo sapiens, UniProt Q14123, Y227A)", "sequence (Q14123 147-531 Y227A)": "as the sequence (Q14123 147-531 Q427A) above, with Y81A, A281Q counted along it", "assay": "Inhibition of PDE1 mutant by 10a", "assay_type": "biochemical"}, "[4]": {"assay": "Metabolic stability in rat liver microsomes", "assay_type": "in vitro ADME"}}, "data": [{"molecule": "Cc1cc2c(c(=O)[nH]1)C(=O)O/C2=C\\c1cc(F)ccc1OC(C)C", "note": "[compound 10a]", "values": [{"measurement": "loss of binding affinity", "setting": "[1]", "value": 8, "unit": "fold"}, {"measurement": "IC50", "setting": "[2]", "value": 231, "unit": "nM"}, {"measurement": "loss of binding affinity", "setting": "[2]; F392A vs wild type", "value": 14, "unit": "fold"}, {"measurement": "IC50", "setting": "[3]", "value": 43, "unit": "nM"}, {"measurement": "loss of binding affinity", "setting": "[3]; Y228A vs wild type", "value": "~3", "unit": "fold"}]}, {"molecule": "O=C1O/C(=C\\c2cc(F)ccc2OCCN2CC[C@@H](F)C2)c2cc(Cc3cccc(F)c3)[nH]c(=O)c21", "note": "[11c]", "values": [{"measurement": "half-life", "setting": "[4]", "value": 13.5, "unit": "min"}]}, {"molecule": "Cc1cc2c(c(=O)[nH]1)C(=O)O/C2=C\\c1cc(F)ccc1OCCN1CCOCC1", "note": "[compound 11a]", "values": [{"measurement": "half-life", "setting": "[4]", "value": 8, "unit": "min"}]}, {"molecule": "O=C1O/C(=C\\c2cc(F)ccc2OCCN2CCOCC2)c2cc(Cc3cccc(F)c3)[nH]c(=O)c21", "note": "[compound 11b]", "values": [{"measurement": "half-life", "setting": "[4]", "value": 29.8, "unit": "min"}]}]}
